For assay [1], the target named is Tyrosine-protein kinase Lck (Homo sapiens, UniProt P06239).
Assay [2] addresses Midasin (Homo sapiens, UniProt Q9NU22).
Assay [3] deals with Glycogen synthase kinase-3 alpha (Homo sapiens, UniProt P49840).
Assay [4] addresses T1, Beta-adrenergic receptor kinase 1 (Homo sapiens, UniProt P25098).
T1 sequence (P25098 whole entry): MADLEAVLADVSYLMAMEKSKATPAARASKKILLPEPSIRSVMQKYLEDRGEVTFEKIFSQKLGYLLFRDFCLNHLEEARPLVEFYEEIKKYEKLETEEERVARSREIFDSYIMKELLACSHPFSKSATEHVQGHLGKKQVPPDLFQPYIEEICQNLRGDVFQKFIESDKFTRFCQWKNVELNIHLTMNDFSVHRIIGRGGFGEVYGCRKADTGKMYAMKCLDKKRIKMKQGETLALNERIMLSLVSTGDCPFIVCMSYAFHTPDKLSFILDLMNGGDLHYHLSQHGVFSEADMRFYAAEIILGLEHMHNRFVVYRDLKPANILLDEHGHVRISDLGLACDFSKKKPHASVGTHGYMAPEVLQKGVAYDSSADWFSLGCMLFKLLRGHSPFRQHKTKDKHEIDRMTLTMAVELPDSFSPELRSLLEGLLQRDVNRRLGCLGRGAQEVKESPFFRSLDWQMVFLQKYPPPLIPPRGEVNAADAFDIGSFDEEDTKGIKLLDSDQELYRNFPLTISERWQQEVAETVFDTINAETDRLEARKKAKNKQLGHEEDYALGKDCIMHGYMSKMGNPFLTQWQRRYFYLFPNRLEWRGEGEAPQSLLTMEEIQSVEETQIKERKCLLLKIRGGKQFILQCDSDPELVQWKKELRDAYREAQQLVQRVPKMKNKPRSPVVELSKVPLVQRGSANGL

In assay [5] the target is T2, ADP/ATP translocase 2 (Homo sapiens, UniProt P05141).
T2 sequence (P05141 whole entry): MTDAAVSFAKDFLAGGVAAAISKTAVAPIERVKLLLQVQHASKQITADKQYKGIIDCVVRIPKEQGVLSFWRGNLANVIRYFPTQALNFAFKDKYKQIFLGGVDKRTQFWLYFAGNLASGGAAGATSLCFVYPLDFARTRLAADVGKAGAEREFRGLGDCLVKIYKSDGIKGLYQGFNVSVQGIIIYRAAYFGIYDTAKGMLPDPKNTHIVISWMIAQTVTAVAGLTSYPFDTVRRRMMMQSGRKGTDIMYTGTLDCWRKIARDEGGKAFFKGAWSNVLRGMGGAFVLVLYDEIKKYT

In assay [6] the target is T3, ATP-dependent RNA helicase DHX30 (Homo sapiens, UniProt Q7L2E3).
T3 sequence (Q7L2E3 whole entry): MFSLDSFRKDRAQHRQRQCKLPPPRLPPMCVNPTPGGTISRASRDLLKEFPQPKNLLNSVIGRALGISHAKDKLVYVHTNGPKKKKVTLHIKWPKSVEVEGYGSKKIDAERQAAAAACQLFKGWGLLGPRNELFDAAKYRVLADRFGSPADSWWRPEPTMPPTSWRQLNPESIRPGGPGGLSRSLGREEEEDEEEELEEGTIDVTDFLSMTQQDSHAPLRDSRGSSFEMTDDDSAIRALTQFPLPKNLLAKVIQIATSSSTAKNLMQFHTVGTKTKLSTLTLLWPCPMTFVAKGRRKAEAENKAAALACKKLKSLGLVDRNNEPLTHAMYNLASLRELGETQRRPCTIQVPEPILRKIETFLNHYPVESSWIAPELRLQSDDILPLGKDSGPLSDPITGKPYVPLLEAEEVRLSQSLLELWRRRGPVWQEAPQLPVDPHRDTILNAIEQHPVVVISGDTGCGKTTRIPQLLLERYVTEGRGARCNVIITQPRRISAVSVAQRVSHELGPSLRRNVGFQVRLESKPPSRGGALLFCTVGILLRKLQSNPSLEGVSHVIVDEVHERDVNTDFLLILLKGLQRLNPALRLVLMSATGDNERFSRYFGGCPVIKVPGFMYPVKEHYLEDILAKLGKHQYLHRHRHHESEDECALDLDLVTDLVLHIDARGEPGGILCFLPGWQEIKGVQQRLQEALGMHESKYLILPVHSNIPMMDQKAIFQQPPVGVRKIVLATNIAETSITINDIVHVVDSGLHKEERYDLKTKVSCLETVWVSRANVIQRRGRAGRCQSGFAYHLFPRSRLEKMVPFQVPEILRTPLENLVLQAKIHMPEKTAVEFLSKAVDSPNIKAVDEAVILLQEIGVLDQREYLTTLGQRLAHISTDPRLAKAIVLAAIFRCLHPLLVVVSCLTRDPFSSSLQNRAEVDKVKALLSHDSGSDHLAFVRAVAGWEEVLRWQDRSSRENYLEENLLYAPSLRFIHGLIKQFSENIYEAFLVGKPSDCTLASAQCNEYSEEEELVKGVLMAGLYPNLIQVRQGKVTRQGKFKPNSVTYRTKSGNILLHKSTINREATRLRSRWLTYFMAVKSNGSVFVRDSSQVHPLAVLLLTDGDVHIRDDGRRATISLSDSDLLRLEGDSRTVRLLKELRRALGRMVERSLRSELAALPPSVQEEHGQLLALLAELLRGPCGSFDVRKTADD

Assay [7] concerns the target Ribosomal protein S6 kinase alpha-3 (Homo sapiens, UniProt P51812).

SMILES strings stand for the structures. The source made the active and inactive calls.

Usually Kd stands for the concentration at which binding is half-saturated.
Note: in the data inactive means no Kd found up to 30 µM.

Chain of Tyrosine-protein kinase Lck (P06239 whole entry): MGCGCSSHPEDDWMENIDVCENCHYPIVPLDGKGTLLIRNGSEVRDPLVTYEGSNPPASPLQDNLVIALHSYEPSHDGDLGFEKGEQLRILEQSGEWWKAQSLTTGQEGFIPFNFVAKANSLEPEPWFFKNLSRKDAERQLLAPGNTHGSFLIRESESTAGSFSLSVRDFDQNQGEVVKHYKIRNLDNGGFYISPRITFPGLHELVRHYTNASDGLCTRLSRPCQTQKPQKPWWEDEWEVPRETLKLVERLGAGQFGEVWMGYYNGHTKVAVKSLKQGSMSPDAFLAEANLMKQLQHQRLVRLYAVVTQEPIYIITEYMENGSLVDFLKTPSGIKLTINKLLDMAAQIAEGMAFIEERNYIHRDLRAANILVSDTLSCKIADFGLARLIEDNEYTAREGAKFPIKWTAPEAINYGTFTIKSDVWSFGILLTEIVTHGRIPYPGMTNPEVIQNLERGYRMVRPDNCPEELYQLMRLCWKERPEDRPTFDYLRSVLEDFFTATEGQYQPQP
Chain of Ribosomal protein S6 kinase alpha-3 (P51812 whole entry): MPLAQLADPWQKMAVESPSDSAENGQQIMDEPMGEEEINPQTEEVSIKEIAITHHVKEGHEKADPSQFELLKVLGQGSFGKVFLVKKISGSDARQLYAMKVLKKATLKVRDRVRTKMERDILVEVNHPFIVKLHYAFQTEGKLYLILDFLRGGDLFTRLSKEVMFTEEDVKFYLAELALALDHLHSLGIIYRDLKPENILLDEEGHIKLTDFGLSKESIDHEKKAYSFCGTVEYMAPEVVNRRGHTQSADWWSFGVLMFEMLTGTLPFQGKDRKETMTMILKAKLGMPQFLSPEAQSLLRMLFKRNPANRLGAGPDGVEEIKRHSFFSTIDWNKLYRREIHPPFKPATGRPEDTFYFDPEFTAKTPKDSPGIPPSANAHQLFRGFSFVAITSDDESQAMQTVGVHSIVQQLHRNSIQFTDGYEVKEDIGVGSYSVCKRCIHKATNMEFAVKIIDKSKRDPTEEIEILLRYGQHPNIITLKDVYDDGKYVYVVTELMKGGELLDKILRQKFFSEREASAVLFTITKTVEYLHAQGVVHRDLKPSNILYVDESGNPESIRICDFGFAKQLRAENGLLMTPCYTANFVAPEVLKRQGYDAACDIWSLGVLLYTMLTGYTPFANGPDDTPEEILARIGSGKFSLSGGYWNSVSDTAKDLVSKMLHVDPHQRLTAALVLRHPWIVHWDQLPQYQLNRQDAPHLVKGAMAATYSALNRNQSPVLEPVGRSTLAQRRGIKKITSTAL
Chain of Glycogen synthase kinase-3 alpha (P49840 whole entry): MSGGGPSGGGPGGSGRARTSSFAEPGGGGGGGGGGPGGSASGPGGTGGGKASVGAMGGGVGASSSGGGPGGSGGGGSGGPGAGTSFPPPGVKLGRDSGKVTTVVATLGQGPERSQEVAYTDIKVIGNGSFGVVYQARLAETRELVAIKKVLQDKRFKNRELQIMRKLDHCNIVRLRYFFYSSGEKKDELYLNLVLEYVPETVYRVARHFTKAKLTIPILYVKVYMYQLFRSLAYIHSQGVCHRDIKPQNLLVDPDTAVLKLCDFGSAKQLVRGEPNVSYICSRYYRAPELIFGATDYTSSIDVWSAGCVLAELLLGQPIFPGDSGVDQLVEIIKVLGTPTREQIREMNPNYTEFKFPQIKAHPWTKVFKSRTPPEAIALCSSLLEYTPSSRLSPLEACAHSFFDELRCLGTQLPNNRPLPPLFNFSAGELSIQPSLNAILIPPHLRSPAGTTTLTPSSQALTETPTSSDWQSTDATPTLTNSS

Turning to `CC(=O)c1cnc2ccc(-c3cc(Cl)c(O)c(Cl)c3)nc2c1N[C@H]1CC[C@H](CN(C)C)CC1`, the Kd was 0.073 µM (active) in assay [1]; > 30 µM (inactive) in assay [2]; 0.087 µM (active) in assay [3]; > 30 µM (inactive) in assay [4]; > 30 µM (inactive) in assay [5]; 0.006 µM in assay [6].

As for `COc1cc(Nc2ncc3c(n2)-c2ccc(Cl)cc2C(c2c(F)cccc2OC)=NC3)ccc1C(=O)O` [ALISERTIB], the Kd in assay [1], in assay [2], in assay [4], in assay [5] and in assay [6] was > 30 µM (inactive) in each case.

Regarding `O=C(Nc1c[nH]nc1-c1nc2cc(CN3CCOCC3)ccc2[nH]1)NC1CC1` [AT-9283], the Kd in assay [1] is 0.89 µM (active); in assay [2] it was > 30 µM (inactive); in assay [3], 0.006 µM (active); in assay [4] it was > 30 µM (inactive); in assay [5] it was > 30 µM (inactive); in assay [6], > 30 µM (inactive).

As for `CNC(=O)c1ccccc1Sc1ccc2c(/C=C/c3ccccn3)n[nH]c2c1` [AXITINIB], the Kd in assay [2], in assay [4], in assay [5] and in assay [6] was > 30 µM (inactive) each time.

In the case of `COc1cc2ncnc(Oc3cccc(NC(=O)Nc4cc(C(C)(C)C(F)(F)F)on4)c3)c2cc1OC` [CEP-32496], the Kd in assay [2], in assay [3], in assay [4], in assay [5], in assay [7] and in assay [6] was > 30 µM (inactive) throughout.

`CC(C)(C)c1nc(-c2cccc(NS(=O)(=O)c3c(F)cccc3F)c2F)c(-c2ccnc(N)n2)s1` [DABRAFENIB]: the Kd in assay [1] is 0.783 µM (active); in assay [2], > 30 µM (inactive); in assay [4], > 30 µM (inactive); in assay [5], > 30 µM (inactive); in assay [6], > 30 µM (inactive).

In the case of `C[C@@H](Oc1cc(-n2cnc3ccc(CN4CCN(C)CC4)cc32)sc1C(N)=O)c1ccccc1C(F)(F)F` [GSK-461364], the Kd in assay [2], in assay [4], in assay [5] and in assay [6] was > 30 µM (inactive) throughout.

`CCn1cc(-c2ccnc3[nH]c(-c4cccc(CN(C)C)c4)cc23)c(-c2ccc(NC(=O)N(C)C)cc2)n1` [GSK-1070916]: the Kd in assay [1], in assay [2], in assay [3], in assay [5] and in assay [6] was > 30 µM (inactive) throughout.

As to `FC(F)(F)c1ccc(/C=C/c2nc(COc3ccc(CCCCn4ccnn4)cc3)co2)cc1` [MUBRITINIB], the Kd in assay [1], in assay [2], in assay [3], in assay [4], in assay [5] and in assay [7] was > 30 µM (inactive) throughout.

As to `COc1ncc(-c2ccc3nccc(-c4ccnnc4)c3c2)cc1NS(=O)(=O)c1ccc(F)cc1F` [OMIPALISIB], the Kd in assay [1], in assay [2], in assay [3], in assay [4], in assay [5] and in assay [7] was > 30 µM (inactive) in each case.

Consider `Cc1[nH]c(/C=C2\C(=O)Nc3ccccc32)c(C)c1CCC(=O)O` [ORANTINIB], for which the Kd in assay [2], in assay [4], in assay [5] and in assay [6] was > 30 µM (inactive) each time.

Take `NC(=O)c1c(OCc2c(F)cc(Br)cc2F)nsc1NC(=O)NCCCCN1CCCC1` [OSI-632]: the Kd in assay [2], in assay [4], in assay [5] and in assay [6] was > 30 µM (inactive) throughout.

Take `CCOc1cc2ncc(C#N)c(Nc3ccc(F)c(Cl)c3)c2cc1NC(=O)/C=C/CN(C)C` [PELITINIB]: the Kd in assay [2], in assay [3], in assay [4], in assay [5], in assay [7] and in assay [6] was > 30 µM (inactive) throughout.

Turning to `CCCCCCCCCCCCCCCCCCOP(=O)([O-])OC1CC[N+](C)(C)CC1` [PERIFOSINE], the Kd in assay [1], in assay [2], in assay [3], in assay [4], in assay [5] and in assay [7] was > 30 µM (inactive) in each case.

Regarding `CNC(=O)c1cc(Oc2ccc(NC(=O)Nc3cc(C(C)(C)C)nn3-c3ccc4ncccc4c3)c(F)c2)ccn1` [REBASTINIB], the Kd in assay [2], in assay [3], in assay [4], in assay [5], in assay [7] and in assay [6] was > 30 µM (inactive) in each case.

As to `O=C(NOCCO)c1cc(CN2OCCCC2=O)c(F)c(F)c1Nc1ccc(I)cc1F` [RO-4987655], the Kd in assay [2], in assay [5] and in assay [6] was > 30 µM (inactive) throughout.

As to `CN1CCN(CCOc2cc(OC3CCOCC3)c3c(Nc4c(Cl)ccc5c4OCO5)ncnc3c2)CC1` [SARACATINIB], the Kd in assay [2], in assay [3], in assay [4], in assay [5], in assay [7] and in assay [6] was > 30 µM (inactive) throughout.

As for `CCS(=O)(=O)c1cccc(-c2cc(C(=O)NC3CCN(C)CC3)c(C)c3[nH]c4ncc(C)cc4c23)c1` [TAK-901], the Kd in assay [1] was 0.105 µM (active); in assay [2] it was > 30 µM (inactive); in assay [3], 22.5 µM (active); in assay [4], > 30 µM (inactive); in assay [5], > 30 µM (inactive); in assay [7], 6 µM (active).

As for `O=C1NC(=O)[C@@H](c2cn3c4c(cccc24)CCC3)[C@@H]1c1c[nH]c2ccccc12` [TIVANTINIB], the Kd in assay [1], in assay [2], in assay [3], in assay [4], in assay [5] and in assay [7] was > 30 µM (inactive) throughout.
